The record followed here is patent US8735431B2, “Active compound combinations having insecticidal properties” (priority 2003, dated 2014).

Holding throughout (assay type): in vivo
One test has as its system Myzus persicae. Put plainly: Myzus persicae test (cabbage leaves dipped). The conditions noted are these: 20 ppm. How it is done: (§1) To produce a suitable preparation of active compound, 1 part by weight of active compound is mixed with the stated amounts of solvent and emulsifier, and the concentrate is diluted with emulsifier-containing water to the desired concentration.
Cabbage leaves (Brassica oleracea) which are heavily infested by the green peach aphid (Myzus persicae) are treated by being dipped into the preparation of active compound of the desired concentration.
After the desired period of time, the kill in % is determined. 100% means that all aphids have been killed; 0% means that none of the aphids have been killed. The determined kill ratios are entered into Colby's formula (see page 39).

Test [1] has as its system Plutella xylostella, resistant strain. Put plainly: Plutella xylostella test (resistant strain). How it is done:
as §1
Cabbage leaves (Brassica oleracea) are treated by being dipped into the preparation of active compound of the desired concentration and are populated with caterpillars of the diamondback moth (Plutella xylostella, resistant strain) while the leaves are still moist.
(§2) After the desired period of time, the kill in % is determined. 100% means that all caterpillars have been killed; 0% means that none of the caterpillars have been killed. The determined kill ratios are entered into Colby's formula (see page 39).

A further test deals with Aphis gossypii. Nature of the test: Aphis gossypii test (cotton leaves dipped). Particulars: 4 ppm. How it is done:
as §1
Cotton leaves (Gossypium hirsutum) which are heavily infested by the cotton aphid (Aphis gossypii) are treated by being dipped into the preparation of active compound of the desired concentration. After the desired period of time, the kill in % is determined. 100% means that all aphids have been killed; 0% means that none of the aphids have been killed. The determined kill ratios are entered into Colby's formula (see page 39).

Test [2] relates to Plutella xylostella, normally sensitive strain. Put plainly: Plutella xylostella test (normally sensitive strain). Here is the method: as §1
Cabbage leaves (Brassica oleracea) are treated by being dipped into the preparation of active compound of the desired concentration and are populated with caterpillars of the diamondback moth (Plutella xylostella, normally sensitive strain) while the leaves are still moist.
as §2

The next test concerns Spodoptera exigua. Put plainly: Spodoptera exigua test (cabbage leaves dipped). How it is done: as §1
Cabbage leaves (Brassica oleracea) are treated by being dipped into the preparation of active compound of the desired concentration and are populated with caterpillars of the beet army worm (Spodoptera exigua) while the leaves are still moist.
as §2

The subject of test [3] is Phaedon cochleariae larvae. Put plainly: Phaedon cochleariae larvae test (cabbage leaves dipped). How it is done:
as §1
Cabbage leaves (Brassica oleracea) are treated by being dipped into the preparation of active compound of the desired concentration and are populated with larvae of the mustard beetle (Phaedon cochleariae) while the leaves are still moist.
After the desired period of time, the kill in % is determined. 100% means that all beetle larvae have been killed; 0% means that none of the beetle larvae have been killed. The determined kill ratios are entered into Colby's formula (see page 39).

In another test the test system is Heliothis armigera. Put plainly: Heliothis armigera test (soybean shoots dipped). Here is the method:
as §1
Soybean shoots (Glycine max) are treated by being dipped into the preparation of active compound of the desired concentration and are populated with caterpillars of the cotton bollworm (Heliothis armigera) while the leaves are still moist.
as §2

For the compound `CC[S+]([O-])c1c(C#N)nn(-c2c(Cl)cc(C(F)(F)F)cc2Cl)c1N` (stereo not drawn) [(2-17) ethiprole, ethiprole, reference compound], the “Kill rate in % after 1d found” value with Myzus persicae amounted to 50%.
For the compound `N#Cc1nn(-c2c(Cl)cc(C(F)(F)F)cc2Cl)c(N)c1[S+]([O-])C(F)(F)F` (stereo not drawn) [(2-16) fipronil, fipronil, reference compound], the “Kill rate in % after 4d found” value in test [1] (0.0064 ppm) stood at 0%. Also, the “Kill rate in % after 6d found” value worked out at 0% with Aphis gossypii and 15% in test [2] (0.0064 ppm).
As for `O=C(NC(=O)c1c(F)cccc1F)Nc1ccc(Oc2ccc(C(F)(F)F)cc2Cl)cc1F` [(2-22) flufenoxuron, flufenoxuron, reference compound], in the test on Spodoptera exigua (0.8 ppm), the “Kill rate in % after 6d found” value turned out to be 10%.
On to `COC(=O)N(C(=O)N1COC2(C(=O)OC)Cc3cc(Cl)ccc3C2=N1)c1ccc(OC(F)(F)F)cc1` (stereo not drawn) [(2-21) indoxacarb, indoxacarb, reference compound], for which the “Kill rate in % after 6d found” value came to 10% in test [3] (0.032 ppm) and 70% in the test on Spodoptera exigua (0.16 ppm).
With `Cc1cc(Cl)cc(C(=O)NC(C)C)c1NC(=O)c1cc(C(F)(F)F)nn1-c1ncccc1Cl` [Example I-1-9], the “Kill rate in % after 1d found” value in the test on Myzus persicae is on record as 0%. For the same compound, the “Kill rate in % after 4d found” value in test [1] (0.00128 ppm) is 0%; in test [2] (0.16 ppm, 4 d) it was 0%. Moreover, the “Kill rate in % after 6d found” value in test [1] (0.032 ppm) is 10%; in the test with Aphis gossypii, 10%; in test [3] (0.0064 ppm), 0%; with Spodoptera exigua (0.0064 ppm) it was 15%; in the test on Spodoptera exigua (0.032 ppm) it was 10%; in the test with Heliothis armigera (0.0064 ppm) it was 20%. Further, the “Kill rate in % after 6d found” value (in the test with Heliothis armigera (0.032 ppm); in test [2] (0.00128 ppm)) was 0% throughout. Moreover, the “Kill rate in % after 3d found” value in the test on Heliothis armigera (0.032 ppm, 3 d) turned out to be 45%.
For “emamectin [(2-9) emamectin, reference compound]”, the figures for the “Kill rate in % after 6d found” value (in test [1] (0.00128 ppm); in the test on Heliothis armigera (0.00128 ppm)) were 40% and 0%, respectively.
